Measured values reported in patent US20250127790A1, “COMBINATION THERAPY USING VPS34 INHIBITORS” (Deciphera Pharmaceuticals, LLC, priority 2021, published 2025).

Key:
[1] = test system: 786-O renal cell carcinoma cells; experiment: qRT-PCR, combination with STING agonist ADU-S100, 786-O cells; assay type: cell-based, Human; conditions: 2 μM Compound 1 or 2, 50 μM ADU-S100, 24 h
Experimental: (§1) 786-O cells were grown in RPMI-1640 medium containing 10% fetal bovine serum. Cells were then incubated for 2 days at 37 degrees Celsius, 5% CO2, and 95% humidity. […] cells were treated with DMSO control, 2 μM Compound 1 or 2 μM Compound 2 in combination with 50 μM STING agonist ADU-S100 for 24 h. Cells were washed with PBS and RNA was isolated using the PureLink RNA kit (#12183018A, Thermo Fisher Scientific) according to the manufacturer's protocol. Genomic DNA was removed using DNA-binding columns (RNeasy plus kit, #74134, Qiagen) and/or DNase treatment (#12185010, Thermo Fisher Scientific). RNA was quantified using NanoDrop (Thermo Fisher Scientific) and 50 ng/μL RNA was used for cDNA synthesis with SuperScript IV VILO Master Mix (#11756050, Thermo Fisher Scientific). Quantitative RT-PCR (qRT-PCR) was run with diluted cDNA (1:25 or 1:12.5), PowerUp SYBR Green Master Mix (#A25741, Thermo Fisher Scientific), and 200 nM primers (see below) on a CFX Connect RT-PCR system (BioRad). Data was analyzed using the ΔΔCT method. Results are mean±SEM of three independent experiments.

[2] = test system: 786-O renal cell carcinoma cells; experiment: Cytokine secretion assay, combination with ADU-S100, 786-O cells; assay type: cell-based, human; conditions: 2 μM Compound 1 or 2, 50 μM ADU-S100, 24 h
Experimental: (§2) 786-O cells were treated with DMSO control, 2 μM Compound 1 or 2 μM Compound 2 in combination with 50 μM STING agonist ADU-S100 for 24 h. Cell culture medium was centrifuged at 1600 rpm for 10 min at 4° C. and obtained supernatant stored at −80° C. Cytokine levels were quantified using following Meso Scale Discovery (MSD) assays: human R-PLEX RANTES/CCL5 (#F21ZN), U-PLEX CXCL10/IP-10 (#K151UFK). Assays were run on the SECTOR Quickplex Imager and analyzed using Discovery Workbench version 4.0 (MSD). Low concentrations of human IFNβ were determined using High Sensitivity IFN Beta ELISA Kit, (PBL assay science, #41415-1).

[3] = test system: A-498 renal cell carcinoma cells; experiment: Cytokine secretion assay, combination with ADU-S100, A-498 cells; assay type: cell-based, human; conditions: 2 μM Compound 1 or 2, 50 μM ADU-S100, 24 h
Experimental: as §2, with “A-498” for “786-O”

[4] = test system: A-498 renal cell carcinoma cells; experiment: qRT-PCR, combination with STING agonist ADU-S100, A-498 cells; assay type: cell-based, Human; conditions: 2 μM Compound 1 or 2, 50 μM ADU-S100, 24 h
Experimental: as §1, with “A-498” for “786-O”, “Minimal Essential Medium” for “RPMI-1640 medium”

B16-F10 melanoma cells = experiment: qRT-PCR, combination with ADU-S100, B16-F10 cells; assay type: cell-based, Murine; conditions: for IFNB1 mRNA expression: 2 μM Compound 1 or 2, 10 μM ADU-S100, 4 h; for CCL5 mRNA expression / CXCL10 mRNA expression: 2 μM Compound 1 or 2, 10 μM ADU-S100, 24 h
Experimental: B16-F10 cells were grown in DMEM/F12 medium containing 10% fetal bovine serum. Cells were then incubated for 2 days at 37 degrees Celsius, 5% CO2, and 95% humidity. […] cells were reversely transfected with scrambled siRNA control (siSCR) or siRNA targeting STING (siSTING). […] Cells were washed with PBS and RNA was isolated using the PureLink RNA kit (#12183018A, Thermo Fisher Scientific) according to the manufacturer's protocol. Genomic DNA was removed using DNA-binding columns (RNeasy plus kit, #74134, Qiagen) and/or DNase treatment (#12185010, Thermo Fisher Scientific). RNA was quantified using NanoDrop (Thermo Fisher Scientific) and 50 ng/μL RNA was used for cDNA synthesis with SuperScript IV VILO Master Mix (#11756050, Thermo Fisher Scientific). Quantitative RT-PCR (qRT-PCR) was run with diluted cDNA (1:25 or 1:12.5), PowerUp SYBR Green Master Mix (#A25741, Thermo Fisher Scientific), and 200 nM primers (see below) on a CFX Connect RT-PCR system (BioRad). Data was analyzed using the ΔΔCT method. Results are mean±SEM of three independent experiments.

Compound | CCL5 mRNA expression [1] | CXCL10 mRNA expression [1] | IFNB1 mRNA expression [1] | CCL5 secretion [2] | CXCL10 secretion [2] | IFNβ secretion [2] | CCL5 secretion [3] | CXCL10 secretion [3] | IFNβ secretion [3] | CCL5 mRNA expression [4] | CXCL10 mRNA expression [4] | IFNB1 mRNA expression [4] | IFNB1 mRNA expression (B16-F10 melanoma cells) | CCL5 mRNA expression (B16-F10 melanoma cells) | CXCL10 mRNA expression (B16-F10 melanoma cells)
C[C@@H]1COCCN1c1cc(=O)n2c(n1)N(Cc1cncc(Cl)c1)[C@H](C(F)(F)F)CC2 [Compound 2, (S)-9-((5-chloropyridin-3-yl)methyl)-2-((R)-3-methylmorpholino)-8-(trifluoromethyl)-6,7,8,9-tetrahydro-4H-pyrimido[1,2-a]pyrimidin-4-one] | increased | increased | increased | increased | increased | increased | increased | increased | increased | mildly increased | mildly increased | mildly increased | did not increase | mildly increase | mildly increase
Nc1ncnc2c1ncn2[C@@H]1O[C@@H]2COP(=O)([S-])O[C@@H]3[C@H](O)[C@@H](COP([O-])(=S)O[C@H]2[C@H]1O)O[C@H]3n1cnc2c(N)ncnc21.[Na+].[Na+] (stereo partly drawn) [ADU-S100, reference compound] | increased | no effect | no effect | significantly increased | significantly increased | mild effect | mildly increased | mildly increased | no effect | increased | increased | no effect | did not increase | did increase | did increase
C[C@@H]1COCCN1c1cc(N2CCCC[C@@H]2C(F)(F)F)[nH]c(=O)c1 [Compound 1, 4-((R)-3-methylmorpholino)-6-((R)-2-(trifluoromethyl)piperidin-1-yl)pyridin-2(1H)-one] | increased | increased | increased | increased | increased | increased | increased | increased | increased | mildly increased | mildly increased | mildly increased | did not increase | mildly increase | mildly increase
